Reference: BindingDB's records for doi:10.7270/Q2PK0DK8 (Nmmlsc, 2009)

Molecular target: Ras-related C3 botulinum toxin substrate 1 (Mus musculus, UniProt P63001)
Experiment: wildtype Rac1 GTP binding inhibitors, SAR follow-up, biochemical, oxadiazole analogs, multiplex bead flow cytometry (AID 2027)
[1] = inactive by the depositor's call

Compound	EC50 [nM]	EC50 [1] [nM]
COc1cccc(-c2noc(CCC(=O)N3CCN(c4cc(C)ccc4C)CC3)n2)c1	6120	
Cc1ccc(C)c(N2CCN(C(=O)CCc3nc(-c4ccccc4C)no3)CC2)c1	1730	
COc1ccc(-c2noc(CCC(=O)N3CCN(c4cccc(Cl)c4)CC3)n2)cc1	> 30000	
Cc1ccc(C)c(N2CCN(C(=O)CCc3nc(-c4ccccc4C(F)(F)F)no3)CC2)c1	2110	
COc1ccc(-c2noc(CCC(=O)N3CCN(c4ccccc4C)CC3)n2)cc1	1350	
COc1ccc(-c2ccc(CCC(=O)N3CCN(c4cc(C)ccc4C)CC3)s2)cc1	> 30000	
COc1ccc(-c2noc(CCC(=O)N3CCN(c4cccc(C)c4C)CC3)n2)cc1 [1-[4-(2,3-dimethylphenyl)-1-piperazinyl]-3-[3-(4-methoxyphenyl)-1,2,4-oxadiazol-5-yl]-1-propanone]	1310	
COc1ccc(-c2noc(CCC(=O)N3CCN(c4cc(C)ccc4C)CC3)n2)cc1 [1-[4-(2,5-dimethylphenyl)-1-piperazinyl]-3-[3-(4-methoxyphenyl)-1,2,4-oxadiazol-5-yl]-1-propanone]	5080	
Cc1ccc(-c2noc(CCC(=O)N3CCN(c4cc(C)ccc4C)CC3)n2)cc1 [1-[4-(2,5-dimethylphenyl)-1-piperazinyl]-3-[3-(4-methylphenyl)-1,2,4-oxadiazol-5-yl]-1-propanone]	3200	
Cc1ccc(C)c(N2CCN(C(=O)CCc3nc(-c4ccc(C(F)(F)F)cc4)no3)CC2)c1 [1-[4-(2,5-dimethylphenyl)-1-piperazinyl]-3-[3-[4-(trifluoromethyl)phenyl]-1,2,4-oxadiazol-5-yl]-1-propanone]	2190	
COc1ccc(-c2noc(CCCCC(=O)N3CCN(c4cc(C)ccc4C)CC3)n2)cc1 [1-[4-(2,5-dimethylphenyl)-1-piperazinyl]-5-[3-(4-methoxyphenyl)-1,2,4-oxadiazol-5-yl]-1-pentanone]	21000	
COc1ccc(-c2noc(CC(=O)N3CCN(c4cc(C)ccc4C)CC3)n2)cc1 [1-[4-(2,5-dimethylphenyl)piperazin-1-yl]-2-[3-(4-methoxyphenyl)-1,2,4-oxadiazol-5-yl]ethanone]		7520
Cc1cccc(-c2noc(CCC(=O)N3CCN(c4cc(C)ccc4C)CC3)n2)c1 [1-[4-(2,5-dimethylphenyl)piperazin-1-yl]-3-[3-(3-methylphenyl)-1,2,4-oxadiazol-5-yl]propan-1-one]	1220	
COc1ccc(-c2cc(CCC(=O)N3CCN(c4cc(C)ccc4C)CC3)on2)cc1 [1-[4-(2,5-dimethylphenyl)piperazin-1-yl]-3-[3-(4-methoxyphenyl)-1,2-oxazol-5-yl]propan-1-one]	> 30000	
COc1ccc(-c2coc(CCC(=O)N3CCN(c4cc(C)ccc4C)CC3)n2)cc1 [1-[4-(2,5-dimethylphenyl)piperazin-1-yl]-3-[4-(4-methoxyphenyl)-1,3-oxazol-2-yl]propan-1-one]	2200	
COc1ccc(-c2ccc(CCC(=O)N3CCN(c4cc(C)ccc4C)CC3)[nH]2)cc1 [1-[4-(2,5-dimethylphenyl)piperazin-1-yl]-3-[5-(4-methoxyphenyl)-1H-pyrrol-2-yl]propan-1-one]	> 30000	
COc1ccc(-c2noc(CCC(=O)N3CCN(c4ccccc4Cl)CC3)n2)cc1 [1-[4-(2-chlorophenyl)piperazin-1-yl]-3-[3-(4-methoxyphenyl)-1,2,4-oxadiazol-5-yl]propan-1-one]	3340	
COc1ccc(-c2noc(CCC(=O)N3CCN(c4ccccc4F)CC3)n2)cc1 [1-[4-(2-fluorophenyl)piperazin-1-yl]-3-[3-(4-methoxyphenyl)-1,2,4-oxadiazol-5-yl]propan-1-one]	1110	
COc1ccc(-c2noc(CCC(=O)N3CCN(c4cccc(Br)c4)CC3)n2)cc1 [1-[4-(3-bromophenyl)-1-piperazinyl]-3-[3-(4-methoxyphenyl)-1,2,4-oxadiazol-5-yl]-1-propanone]	> 30000	
COc1ccc(-c2noc(CCC(=O)N3CCN(c4cccc(F)c4)CC3)n2)cc1 [1-[4-(3-fluorophenyl)piperazin-1-yl]-3-[3-(4-methoxyphenyl)-1,2,4-oxadiazol-5-yl]propan-1-one]	> 30000	
COc1ccc(-c2noc(CCC(=O)N3CCN(c4ccc(Br)cc4)CC3)n2)cc1 [1-[4-(4-bromophenyl)piperazin-1-yl]-3-[3-(4-methoxyphenyl)-1,2,4-oxadiazol-5-yl]propan-1-one]		257
COc1ccc(-c2noc(CCC(=O)N3CCN(c4cccc(C(F)(F)F)c4)CC3)n2)cc1 [1-{3-[3-(4-methoxyphenyl)-1,2,4-oxadiazol-5-yl]propanoyl}-4-[3-(trifluoromethyl)phenyl]piperazine]	> 30000	
Cc1ccc(C)c(N2CCN(C(=O)CCc3nc(-c4ccccc4Br)no3)CC2)c1 [3-[3-(2-bromophenyl)-1,2,4-oxadiazol-5-yl]-1-[4-(2,5-dimethylphenyl)-1-piperazinyl]-1-propanone]	1710	
Cc1ccc(C)c(N2CCN(C(=O)CCc3nc(-c4ccccc4Cl)no3)CC2)c1 [3-[3-(2-chlorophenyl)-1,2,4-oxadiazol-5-yl]-1-[4-(2,5-dimethylphenyl)-1-piperazinyl]-1-propanone]	1190	
COc1ccc(-c2noc(CCC(=O)N3CCN(c4ccccc4)CC3)n2)cc1 [3-[3-(4-methoxyphenyl)-1,2,4-oxadiazol-5-yl]-1-(4-phenylpiperazin-1-yl)propan-1-one]	> 30000	
COc1ccc(-c2noc(CCC(=O)N3CCN(c4ccccc4OC)CC3)n2)cc1 [3-[3-(4-methoxyphenyl)-1,2,4-oxadiazol-5-yl]-1-[4-(2-methoxyphenyl)-1-piperazinyl]-1-propanone]		2290

Compound	EC50 [nM]	EC50 [1] [nM]
COc1ccc(-c2noc(CCC(=O)N3CCN(c4ccc(OC)cc4)CC3)n2)cc1 [3-[3-(4-methoxyphenyl)-1,2,4-oxadiazol-5-yl]-1-[4-(4-methoxyphenyl)piperazin-1-yl]propan-1-one]		527
COc1ccc(-c2noc(CCC(=O)N3CCN(c4ccc(C)cc4)CC3)n2)cc1 [3-[3-(4-methoxyphenyl)-1,2,4-oxadiazol-5-yl]-1-[4-(4-methylphenyl)piperazin-1-yl]propan-1-one]		2690
COc1ccc(-c2noc(CCC(=O)N3CCN(c4ccc(C(F)(F)F)cc4)CC3)n2)cc1 [3-[3-(4-methoxyphenyl)-1,2,4-oxadiazol-5-yl]-1-[4-[4-(trifluoromethyl)phenyl]piperazin-1-yl]propan-1-one]	> 30000	
COc1ccc(-c2noc(CCC(=O)N3CCN(c4cccc(OC)c4)CC3)n2)cc1 [KUC103349N]	> 30000	
COc1ccc(-c2noc(CCCC(=O)N3CCN(c4cc(C)ccc4C)CC3)n2)cc1 [KUC103353N]	3790	
Cc1ccc(C)c(N2CCN(C(=O)CCc3nc(-c4ccc(F)cc4)no3)CC2)c1 [KUC103364N]	1270	
Cc1ccc(C)c(N2CCN(C(=O)CCc3nc(-c4cccc(F)c4)no3)CC2)c1 [KUC103366N]	1480	
Cc1ccc(C)c(N2CCN(C(=O)CCc3nc(-c4cccc(Br)c4)no3)CC2)c1 [KUC103367N]	1670	
COc1ccc(-c2noc(CCC(=O)N3CCN(c4ccccc4Br)CC3)n2)cc1 [KUC103370N]	1700	
Cc1ccc(C)c(N2CCN(C(=O)CCc3nc(-c4cccc(C(F)(F)F)c4)no3)CC2)c1 [KUC103380N]	2500	
COc1ccc(-c2noc(CCC(=O)N3CCN(c4ccc(F)cc4)CC3)n2)cc1 [KUC103398N]		1590
Cc1ccc(C)c(N2CCN(C(=O)CCc3nc(-c4ccccc4F)no3)CC2)c1 [KUC103401N]	1820	
Cc1ccc(C)c(N2CCN(C(=O)CCc3nc(-c4ccc(N(C)C)cc4)no3)CC2)c1 [KUC103409N]	2770	
COc1ccc(-c2noc(CCC(=O)N3CCC(c4cc(C)ccc4C)CC3)n2)cc1 [KUC103432N]	1220	
COc1ccc(-c2ccc(CCC(=O)N3CCN(c4cc(C)ccc4C)CC3)o2)cc1 [KUC103447N]	> 30000	
Cc1ccc(C)c(N2CCN(C(=O)CCc3nc(-c4ccccc4)no3)CC2)c1 [UNM-0000306070]		1640
COc1ccccc1-c1noc(CCC(=O)N2CCN(c3cc(C)ccc3C)CC2)n1 [UNM-0000306071]		15100
Cc1ccc(C)c(N2CCN(C(=O)CCc3nc(-c4ccc(Br)cc4)no3)CC2)c1 [UNM-0000306072]	2970	
COc1ccc(-c2noc(CCC(=O)N3CCN(c4ccccc4C(F)(F)F)CC3)n2)cc1 [UNM-0000306082]	1690	
Cc1ccc(C)c(N2CCN(C(=O)CCc3nc(-c4ccc(Cl)cc4)no3)CC2)c1 [UNM-0000306083]	1830	
Cc1ccc(C)c(N2CCN(C(=O)CCc3nc(-c4cccc(Cl)c4)no3)CC2)c1 [UNM-0000306086]	4970	
COc1ccc(-c2noc(CCC(=O)N3CCN(c4ccc(Cl)cc4)CC3)n2)cc1 [UNM-0000306121]	> 30000	
COc1ccc(-c2noc(CCC(=O)N3CCN(c4cccc(C)c4)CC3)n2)cc1 [UNM-0000306125]	> 30000	
COc1ccc(-c2cccc(CCC(=O)N3CCN(c4cc(C)ccc4C)CC3)c2)cc1 [UNM-0000306127]	> 30000	
COc1ccc(-c2cc(CCC(=O)N3CCN(c4cc(C)ccc4C)CC3)[nH]n2)cc1 [UNM-0000306150]	> 30000	
